From patent US8445501B2, “Substituted 7-carboxamido-pyrrolo[3,2-d]pyrimidines” (Takeda GmbH, priority 2008, dated 2013)

Target: T1, human PDE5 (Homo sapiens, UniProt O76074)
T1 construct: from tissue; host or cells: platelets from fresh blood of human donors (lysate, 10,000 g supernatant)
Assay: Inhibition of the type 5 phosphodiesterase (PDE5) activity, modified SPA test with platelet lysate
Format: biochemical
Conditions: PDE5 from human platelet lysate, 0.5 μM cGMP
In short: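 Human platelet lysate (10,000 g supernatant) as PDE5 source in SPA with 0.5 μM cGMP plus [3H]cGMP tracer, pH 7.4, 5 mM Mg2+, 1 μM motapizone and 10 nM PDE2 inhibitor; 10–20% conversion. 5 min preincubation, 15 min at 37 °C, stopped with SPA beads/IBMX. IC50 by non-linear regression.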

IC50 [nM] | SMILES
0.501 | COc1cc(OCC2CC2)c(-c2ncnc3c(C(=O)N[C@@H]4CCCN(C(=O)[C@H](C)O)C4)c[nH]c23)cc1F [Example 240, 4-(2-Cyclopropylmethoxy-5-fluoro-4-methoxy-phenyl)-5H-pyrrolo[3,2-d]pyrimidine-7-carboxylic acid [(R)-1-((S)-2-hydroxy-propanoyl)piperidin-3-yl]-amide]
2.57 | C[C@H](O)C(=O)N[C@H]1CC[C@@H](NC(=O)c2c[nH]c3c(-c4ccc(F)cc4OCC4CC4)ncnc23)CC1 [Example 215, cis-4-(2-Cyclopropylmethoxy-4-fluoro-phenyl)-5H-pyrrolo[3,2-d]pyrimidine-7-carboxylic acid [4-((S)-2-hydroxy-propionylamino)-cyclohexyl]-amide]
0.224 | CCOC(=O)N1CCCC(CNC(=O)c2c[nH]c3c(-c4c(OCC5CC5)ccc5c4OCO5)ncnc23)C1 (stereo not shown) [Example 31, 3-({[4-(5-Cyclopropylmethoxy-benzo[1,3]dioxol-4-yl)-5H-pyrrolo[3,2-d]pyrimidine-7-carbonyl]-amino}-methyl)-piperidine-1-carboxylic acid ethyl ester]
23.4 | COCCOc1cc(OC)ccc1-c1ncnc2c(C(=O)NC3CCN(C(=O)COC)CC3)c[nH]c12 [Example 160, 4-[4-Methoxy-2-(2-methoxy-ethoxy)-phenyl]-5H-pyrrolo[3,2-d]pyrimidine-7-carboxylic acid [1-(2-methoxy-acetyl)-piperidin-4-yl]-amide]
851 | O=C(NC1CCN(C(=O)CO)CC1)c1c[nH]c2c(-c3cc(F)c(O)cc3OCC3CC3)ncnc12 [Example 281, 4-(2-Cyclopropylmethoxy-5-fluoro-4-hydroxy-phenyl)-5H-pyrrolo[3,2-d]pyrimidine-7-carboxylic acid [1-(2-hydroxy-acetyl)piperidin-4-yl]-amide]
0.575 | COCCNC(=O)[C@H]1CC[C@H](NC(=O)c2c[nH]c3c(-c4c(OCC5CC5)ccc5c4OCO5)ncnc23)CC1 [Example 269, trans-4-(5-Cyclopropylmethoxy-benzo[1,3]dioxol-4-yl)-5H-pyrrolo[3,2-d]pyrimidine-7-carboxylic acid [4-(2-methoxy-ethylcarbamoyl)-cyclohexyl]-amide]
13.8 | COCCOc1ccc2c(c1-c1ncnc3c(C(=O)NC4CCN(C(=O)COC)CC4)c[nH]c13)OCO2 [Example 170, 4-[5-(2-Methoxy-ethoxy)-benzo[1,3]dioxol-4-yl]-5H-pyrrolo[3,2-d]pyrimidine-7-carboxylic acid [1-(2-methoxy-acetyl)piperidin-4-yl]-amide]
0.49 | CCOC(=O)N1CC[C@H](NC(=O)c2c[nH]c3c(-c4c(OCC5CC5)ccc5c4OCO5)ncnc23)C1 [Example 22, (S)-3-({1-[4-(5-Cyclopropylmethoxy-benzo[1,3]dioxol-4-yl)-5H-pyrrolo[3,2-d]pyrimidin-7-yl]-methanoyl}-amino)-pyrrolidine-1-carboxylic acid ethyl ester]
17 | COCCOc1cc(OC)ccc1-c1ncnc2c(C(=O)N[C@H]3CC[C@@H](NC(=O)COC)CC3)c[nH]c12 [Example 154, cis-4-[4-Methoxy-2-(2-methoxy-ethoxy)-phenyl]-5H-pyrrolo[3,2-d]pyrimidine-7-carboxylic acid [4-(2-methoxy-acetylamino)-cyclohexyl]-amide]
0.708 | COCCNC(=O)[C@H]1CC[C@H](NC(=O)c2c[nH]c3c(-c4ccc(OC)cc4OCC4CC4)ncnc23)CC1 [Example 272, trans-4-(2-Cyclopropylmethoxy-4-methoxy-phenyl)-5H-pyrrolo[3,2-d]pyrimidine-7-carboxylic acid [4-(2-methoxy-ethylcarbamoyl)-cyclohexyl]-amide]
1.66 | COc1cc(OCC2CC2)c(-c2ncnc3c(C(=O)NC4CCN(C(=O)CO)CC4)c[nH]c23)cc1F [Example 236, 4-(2-Cyclopropylmethoxy-5-fluoro-4-methoxy-phenyl)-5H-pyrrolo[3,2-d]pyrimidine-7-carboxylic acid [1-(2-hydroxy-ethanoyl)-piperidin-4-yl]amide]
0.741 | COc1ccc(-c2ncnc3c(C(=O)NC4CCN(C(C)=O)CC4)c[nH]c23)c(OCC2CC2)c1 [Example 59, 4-(2-Cyclopropylmethoxy-4-methoxy-phenyl)-5H-pyrrolo[3,2-d]pyrimidine-7-carboxylic acid (1-acetyl-piperidin-4-yl)-amide]
0.0794 | CC(=O)c1ccc(OCC2CC2)c(-c2ncnc3c(C(=O)NC4CCN(C(C)=O)CC4)c[nH]c23)c1 [Example 266, 4-(5-Acetyl-2-cyclopropylmethoxy-phenyl)-5H-pyrrolo[3,2-d]pyrimidine-7-carboxylic acid (1-acetyl-piperidin-4-yl)-amide]
0.214 | CCC(=O)N1CCC(NC(=O)c2c[nH]c3c(-c4cc(F)c(OC)cc4OCC4CC4)ncnc23)CC1 [Example 110, 4-(2-Cyclopropylmethoxy-5-fluoro-4-methoxy-phenyl)-5H-pyrrolo[3,2-d]pyrimidine-7-carboxylic acid (1-propionyl-piperidin-4-yl)-amide]
1.51 | COCC(=O)N1CCC(CNC(=O)c2c[nH]c3c(-c4c(OCC5CC5)ccc5c4OCO5)ncnc23)C1 (stereo not shown) [Example 33, 4-(5-Cyclopropylmethoxy-benzo[1,3]dioxol-4-yl)-5H-pyrrolo[3,2-d]pyrimidine-7-carboxylic acid [1-(2-methoxy-acetyl)-pyrrolidin-3-ylmethyl]-amide]
0.178 | COc1cc(-c2ncnc3c(C(=O)NC4CCN(C(C)=O)CC4)c[nH]c23)c(OCC2CC2)cc1F [Example 99, 4-(2-Cyclopropylmethoxy-4-fluoro-5-methoxy-phenyl)-5H-pyrrolo[3,2-d]pyrimidine-7-carboxylic acid (1-acetyl-piperidin-4-yl)-amide]
0.479 | O=C(N[C@@H]1CCN(C(=O)C2(O)CC2)C1)c1c[nH]c2c(-c3c(OCC4CC4)ccc4c3OCO4)ncnc12 [Example 182, 4-(5-Cyclopropylmethoxy-benzo[1,3]dioxol-4-yl)-5H-pyrrolo[3,2-d]pyrimidine-7-carboxylic acid {(R)-1-[1-(1-hydroxy-cyclopropyl)-methanoyl]-pyrrolidin-3-yl}-amide]
0.245 | C[C@H](O)C(=O)N1CCC(NC(=O)c2c[nH]c3c(-c4c(OCC5CC5)ccc5c4OCO5)ncnc23)CC1 [Example 176, 4-(5-Cyclopropylmethoxy-benzo[1,3]dioxol-4-yl)-5H-pyrrolo[3,2-d]pyrimidine-7-carboxylic acid [1-((S)-2-hydroxy-propanoyl)-piperidin-4-yl]amide]
0.794 | CC(=O)c1cc(-c2ncnc3c(C(=O)NC4CCN(C(C)=O)CC4)c[nH]c23)c(OCC2CC2)cc1C [Example 268, 4-(5-Acetyl-2-cyclopropylmethoxy-4-methyl-phenyl)-5H-pyrrolo[3,2-d]pyrimidine-7-carboxylic acid (1-acetyl-piperidin-4-yl)-amide]
0.427 | COCC(=O)N1CCC[C@@H](NC(=O)c2c[nH]c3c(-c4c(OCC5CC5)ccc5c4OCO5)ncnc23)C1 [Example 48, 4-(5-Cyclopropylmethoxy-benzo[1,3]dioxol-4-yl)-5H-pyrrolo[3,2-d]pyrimidine-7-carboxylic acid [(R)-1-(2-methoxy-ethanoyl)-piperidin-3-yl]amide]
0.347 | COCCNC(=O)[C@H]1CC[C@H](NC(=O)c2c[nH]c3c(-c4c(OCC5CCC5)ccc5c4OCO5)ncnc23)CC1 [Example 275, trans-4-(5-Cyclobutylmethoxy-benzo[1,3]dioxol-4-yl)-5H-pyrrolo[3,2-d]pyrimidine-7-carboxylic acid [4-(2-methoxy-ethylcarbamoyl)-cyclohexyl]-amide]
2.34 | COc1ccc(OCC2CC2)c(-c2ncnc3c(C(=O)NC4CCN(C(=O)CO)CC4)c[nH]c23)c1 [Example 211, 4-(2-Cyclopropylmethoxy-5-methoxy-phenyl)-5H-pyrrolo[3,2-d]pyrimidine-7-carboxylic acid [1-(2-hydroxy-acetyl)piperidin-4-yl]-amide]
0.288 | COCC(=O)N1CCC(NC(=O)c2c[nH]c3c(-c4cc(C(C)=O)ccc4OCC4CC4)ncnc23)CC1 [Example 265, 4-(5-Acetyl-2-cyclopropylmethoxy-phenyl)-5H-pyrrolo[3,2-d]pyrimidine-7-carboxylic acid [1-(2-methoxy-acetyl)piperidin-4-yl]-amide]
57.5 | CCC(=O)N1CCC(NC(=O)c2c[nH]c3c(-c4cc(F)c(O)cc4OCC4CC4)ncnc23)CC1 [Example 278, 4-(2-Cyclopropylmethoxy-5-fluoro-4-hydroxy-phenyl)-5H-pyrrolo[3,2-d]pyrimidine-7-carboxylic acid (1-propionyl-piperidin-4-yl)-amide]
1.02 | O=C(NCC1CCN(C(=O)CO)C1)c1c[nH]c2c(-c3c(OCC4CC4)ccc4c3OCO4)ncnc12 (stereo not shown) [Example 191, 4-(5-Cyclopropylmethoxy-benzo[1,3]dioxol-4-yl)-5H-pyrrolo[3,2-d]pyrimidine-7-carboxylic acid [1-(2-hydroxy-acetyl)pyrrolidin-3-ylmethyl]-amide]
1.07 | COc1ccc(OCC2CC2)c(-c2ncnc3c(C(=O)NC4CCN(C(=O)[C@H](C)O)CC4)c[nH]c23)c1 [Example 212, 4-(2-Cyclopropylmethoxy-5-methoxy-phenyl)-5H-pyrrolo[3,2-d]pyrimidine-7-carboxylic acid [1-((S)-2-hydroxy-propionyl)piperidin-4-yl]-amide]
1.2 | CC(=O)N[C@H]1CC[C@H](NC(=O)c2c[nH]c3c(-c4cc(C)ccc4OCC4CC4)ncnc23)CC1 [Example 120, trans-4-(2-Cyclopropylmethoxy-5-methyl-phenyl)-5H-pyrrolo[3,2-d]pyrimidine-7-carboxylic acid (4-acetylamino-cyclohexyl)-amide]

SMILES | IC50 [nM]
CCCCOc1ccc2c(c1-c1ncnc3c(C(=O)NC4CCCN(C(=O)CC)C4)c[nH]c13)OCO2 (stereo not shown) [Example 147, 4-(5-Butoxy-benzo[1,3]dioxol-4-yl)-5H-pyrrolo[3,2-d]pyrimidine-7-carboxylic acid (1-propionyl-piperidin-3-yl)-amide] | 0.24
